US9815846B2 (Merck Sharp & Dohme Corp., priority 2014, dated 2017)
pIC50: −log10 of the molar value.

Target: human TrkA receptor (Homo sapiens (Human), UniProt P04629)
Assay: DiscoverX PathHunter TrkA functional assay (NGF-stimulated U2OS cells)
Type: cell-based
Conditions: U2OS cells expressing human TrkA-PK, Shc1-EA and p75NTR; compound 1 h, then NGF at ~80% of maximal response for 3 h; luminescence

human TrkA receptor, sequence (P04629 33-796): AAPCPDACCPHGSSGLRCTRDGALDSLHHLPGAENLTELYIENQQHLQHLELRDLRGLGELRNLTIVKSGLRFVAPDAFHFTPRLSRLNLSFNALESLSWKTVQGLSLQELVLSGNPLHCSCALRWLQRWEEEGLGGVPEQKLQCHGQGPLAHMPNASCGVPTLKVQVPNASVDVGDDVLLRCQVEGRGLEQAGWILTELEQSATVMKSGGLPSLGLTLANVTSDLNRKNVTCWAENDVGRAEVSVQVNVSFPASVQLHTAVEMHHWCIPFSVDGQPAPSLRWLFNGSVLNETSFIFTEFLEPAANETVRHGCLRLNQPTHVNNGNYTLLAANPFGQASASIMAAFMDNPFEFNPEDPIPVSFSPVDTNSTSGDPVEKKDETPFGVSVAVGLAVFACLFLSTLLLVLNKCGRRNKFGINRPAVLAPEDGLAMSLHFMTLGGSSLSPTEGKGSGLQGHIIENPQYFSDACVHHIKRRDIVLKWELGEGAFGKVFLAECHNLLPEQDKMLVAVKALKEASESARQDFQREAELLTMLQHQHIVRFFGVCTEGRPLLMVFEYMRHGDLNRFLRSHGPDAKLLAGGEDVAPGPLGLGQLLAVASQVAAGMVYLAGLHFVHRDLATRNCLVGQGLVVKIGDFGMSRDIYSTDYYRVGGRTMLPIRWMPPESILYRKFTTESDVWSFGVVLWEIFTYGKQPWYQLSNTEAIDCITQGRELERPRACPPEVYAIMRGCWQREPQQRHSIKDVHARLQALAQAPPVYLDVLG

| SMILES | pIC50 |
| --- | --- |
| Cn1ccc(-c2cc(C(=O)Nc3ccc(CN4C(=O)CNC4=O)nc3-c3ccccc3)c(F)cc2C(F)(F)F)n1 [Example 98, N-(6-((2,5-dioxoimidazolidin-1-yl)methyl)-2-phenylpyridin-3-yl)-2-fluoro-5-(1-methyl-1H-pyrazol-3-yl)-4-(trifluoromethyl)benzamide] | 9.66 |
| Cn1ccc(-c2cc(C(=O)Nc3cnc(CC(N)=O)nc3-c3ccccc3)c(F)cc2C(F)(F)F)n1 [Example 99, N-(2-(2-Amino-2-oxoethyl)-4-phenylpyrimidin-5-yl)-2-fluoro-5-(1-methyl-1H-pyrazol-3-yl)-4-(trifluoromethyl)benzamide] | 9.23 |
| CN(C)C(=O)Cc1ncc(NC(=O)c2cc(-c3ccn(C)n3)c(C(F)(F)F)cc2F)c(-c2ccccc2)n1 [Example 100, N-(2-(2-(Dimethylamino)-2-oxoethyl)-4-phenylpyrimidin-5-yl)-2-fluoro-5-(1-methyl-1H-pyrazol-3-yl)-4-(trifluoromethyl)benzamide] | 8.92 |
| Cn1ccc(-c2cc(C(=O)Nc3cnc(CC(N)=O)cc3-c3ccccc3)c(F)cc2C(F)(F)F)n1 [Example 101, N-(6-(2-Amino-2-oxoethyl)-4-phenylpyridin-3-yl)-2-fluoro-5-(1-methyl-1H-pyrazol-3-yl)-4-(trifluoromethyl)benzamide] | 8.96 |
| Cn1ccc(-c2cc(C(=O)Nc3ccc(CC(N)=O)nc3-c3ccccc3)c(F)cc2C(F)(F)F)n1 [Example 102, N-(6-(2-Amino-2-oxoethyl)-2-phenylpyridin-3-yl)-2-fluoro-5-(1-methyl-1H-pyrazol-3-yl)-4-(trifluoromethyl)benzamide] | 9.10 |
| CNC(=O)Cc1ncc(NC(=O)c2ccc(C(F)(F)F)c(-c3ccn(C)n3)c2)c(-c2ccccc2)n1 [Example 103, 3-(1-methyl-1H-pyrazol-3-yl)-N-(2-(2-(methylamino)-2-oxoethyl)-4-phenylpyrimidin-5-yl)-4-(trifluoromethyl)benzamide] | 8.39 |
| CNC(=O)Cc1ncc(NC(=O)c2cc(-c3ccn(C)n3)c(C(F)(F)F)cc2F)c(-c2ccccc2)n1 [Example 104, 2-fluoro-5-(1-methyl-1H-pyrazol-3-yl)-N-(2-(2-(methylamino)-2-oxoethyl)-4-phenylpyrimidin-5-yl)-4-(trifluoromethyl)benzamide] | 9.12 |
| CCNC(=O)Cc1ncc(NC(=O)c2cc(-c3ccn(C)n3)c(C(F)(F)F)cc2F)c(-c2ccccc2)n1 [Example 105, N-(2-(2-(ethylamino)-2-oxoethyl)-4-phenylpyrimidin-5-yl)-2-fluoro-5-(1-methyl-1H-pyrazol-3-yl)-4-(trifluoromethyl)benzamide] | 9.28 |
| Cn1ccc(-c2cc(C(=O)Nc3cnc(CC(=O)O)nc3-c3ccccc3)c(F)cc2C(F)(F)F)n1 [Example 106, 2-(5-(2-fluoro-5-(1-methyl-1H-pyrazol-3-yl)-4-(trifluoromethyl)benzamido)-4-phenylpyrimidin-2-yl)acetic acid] | 8.70 |
| Cn1ccc(-c2cc(C(=O)Nc3cnc(CC(=O)NC[C@@H]4CCCO4)nc3-c3ccccc3)c(F)cc2C(F)(F)F)n1 [Example 107, (S)-2-fluoro-5-(1-methyl-1H-pyrazol-3-yl)-N-(2-(2-oxo-2-(((tetrahydrofuran-2-yl)methyl)amino)ethyl)-4-phenylpyrimidin-5-yl)-4-(trifluoromethyl)benzamide] | 8.92 |
| Cn1ccc(-c2cc(C(=O)Nc3cnc(CC(=O)NCCO)nc3-c3ccccc3)c(F)cc2C(F)(F)F)n1 [Example 108, 2-fluoro-N-(2-(2-((2-hydroxyethyl)amino)-2-oxoethyl)-4-phenylpyrimidin-5-yl)-5-(1-methyl-1H-pyrazol-3-yl)-4-(trifluoromethyl)benzamide] | 8.82 |
| Cn1ccc(-c2cc(C(=O)Nc3cnc(CC(=O)N[C@H]4C[C@@H](O)C4)nc3-c3ccccc3)c(F)cc2C(F)(F)F)n1 [Example 109, 2-fluoro-N-(2-(2-(((1s,3s)-3-hydroxycyclobutyl)amino)-2-oxoethyl)-4-phenylpyrimidin-5-yl)-5-(1-methyl-1H-pyrazol-3-yl)-4-(trifluoromethyl)benzamide] | 8.59 |
| Cn1ccc(-c2cc(C(=O)Nc3cnc(CC(=O)N[C@H]4CCOC4)nc3-c3ccccc3)c(F)cc2C(F)(F)F)n1 [Example 110, (S)-2-fluoro-5-(1-methyl-1H-pyrazol-3-yl)-N-(2-(2-oxo-2-((tetrahydrofuran-3-yl)amino)ethyl)-4-phenylpyrimidin-5-yl)-4-(trifluoromethyl)benzamide] | 8.92 |
| Cn1ccc(-c2cc(C(=O)Nc3cnc(CC(=O)N4CCOCC4)nc3-c3ccccc3)c(F)cc2C(F)(F)F)n1 [Example 111, 2-fluoro-5-(1-methyl-1H-pyrazol-3-yl)-N-(2-(2-morpholino-2-oxoethyl)-4-phenylpyrimidin-5-yl)-4-(trifluoromethyl)benzamide] | 8.04 |
| Cn1ccc(-c2cc(C(=O)Nc3cnc(CC(=O)NCC4CCOC4)nc3-c3ccccc3)c(F)cc2C(F)(F)F)n1 (stereo not drawn) [Example 112, 2-fluoro-5-(1-methyl-1H-pyrazol-3-yl)-N-(2-(2-oxo-2-(((tetrahydrofuran-3-yl)methyl)amino)ethyl)-4-phenylpyrimidin-5-yl)-4-(trifluoromethyl)benzamide] | 8.19 |
| Cn1ccc(-c2cc(C(=O)Nc3cnc(CC(=O)NC4CCC4)nc3-c3ccccc3)c(F)cc2C(F)(F)F)n1 [Example 113, N-(2-(2-(cyclobutylamino)-2-oxoethyl)-4-phenylpyrimidin-5-yl)-2-fluoro-5-(1-methyl-1H-pyrazol-3-yl)-4-(trifluoromethyl)benzamide] | 8.89 |
| Cn1ccc(-c2cc(C(=O)Nc3cnc(CC(=O)N4CCNCC4)nc3-c3ccccc3)c(F)cc2C(F)(F)F)n1 [Example 114, 2-fluoro-5-(1-methyl-1H-pyrazol-3-yl)-N-(2-(2-oxo-2-(piperazin-1-yl)ethyl)-4-phenylpyrimidin-5-yl)-4-(trifluoromethyl)benzamide] | 8.52 |
| CCN(C)C(=O)Cc1ncc(NC(=O)c2cc(-c3ccn(C)n3)c(C(F)(F)F)cc2F)c(-c2ccccc2)n1 [Example 115, N-(2-(2-(ethyl(methyl)amino)-2-oxoethyl)-4-phenylpyrimidin-5-yl)-2-fluoro-5-(1-methyl-1H-pyrazol-3-yl)-4-(trifluoromethyl)benzamide] | 8.59 |
| Cn1ccc(-c2cc(C(=O)Nc3cnc(CC(N)=O)nc3-c3ccccc3)ccc2C(F)(F)F)n1 [Example 116, N-(2-(2-amino-2-oxoethyl)-4-phenylpyrimidin-5-yl)-3-(1-methyl-1H-pyrazol-3-yl)-4-(trifluoromethyl)benzamide] | 8.01 |
| Cc1ccccc1-c1nc(CC(N)=O)ncc1NC(=O)c1cc(-c2ccn(C)n2)c(C(F)(F)F)cc1F [Example 117, N-(2-(2-amino-2-oxoethyl)-4-(o-tolyl)pyrimidin-5-yl)-2-fluoro-5-(1-methyl-1H-pyrazol-3-yl)-4-(trifluoromethyl)benzamide] | 8.31 |
| Cn1ccc(-c2cc(C(=O)Nc3cnc(C(O)C(N)=O)nc3-c3ccccc3)c(F)cc2C(F)(F)F)n1 (stereo not drawn) [Example 118, N-(2-(2-amino-1-hydroxy-2-oxoethyl)-4-phenylpyrimidin-5-yl)-2-fluoro-5-(1-methyl-1H-pyrazol-3-yl)-4-(trifluoromethyl)benzamide] | 8.42 |
| Cn1ccc(-c2cc(C(=O)Nc3cnc(C4(C(N)=O)CC4)nc3-c3ccccc3)c(F)cc2C(F)(F)F)n1 [Example 119, N-(2-(1-carbamoylcyclopropyl)-4-phenylpyrimidin-5-yl)-2-fluoro-5-(1-methyl-1H-pyrazol-3-yl)-4-(trifluoromethyl)benzamide] | 8.10 |
| Cn1ccc(-c2cc(C(=O)Nc3ncc(CC(N)=O)nc3-c3ccccc3)c(F)cc2C(F)(F)F)n1 [Example 120, N-(5-(2-amino-2-oxoethyl)-3-phenylpyrazin-2-yl)-2-fluoro-5-(1-methyl-1H-pyrazol-3-yl)-4-(trifluoromethyl)benzamide] | 8.06 |
| Cn1ccc(-c2cc(C(=O)Nc3cnc(C(C)(C)C(=O)O)nc3-c3ccccc3)c(F)cc2C(F)(F)F)n1 [Example 121, 2-(5-(2-fluoro-5-(1-methyl-1H-pyrazol-3-yl)-4-(trifluoromethyl)benzamido)-4-phenylpyrimidin-2-yl)-2-methylpropanoic acid] | 8.10 |
| Cn1ccc(-c2cc(C(=O)Nc3cnc(C(C)(C)C(N)=O)nc3-c3ccccc3)c(F)cc2C(F)(F)F)n1 [Example 122, N-(2-(1-amino-2-methyl-1-oxopropan-2-yl)-4-phenylpyrimidin-5-yl)-2-fluoro-5-(1-methyl-1H-pyrazol-3-yl)-4-(trifluoromethyl)benzamide] | 7.74 |
| NC(=O)Cc1ncc(NC(=O)c2cc(-c3ccccn3)c(C(F)(F)F)cc2F)c(-c2ccccc2)n1 [Example 123, N-(2-(2-amino-2-oxoethyl)-4-phenylpyrimidin-5-yl)-2-fluoro-5-(pyridin-2-yl)-4-(trifluoromethyl)benzamide] | 8.08 |
| NC(=O)Cc1ccc(NC(=O)c2cc(-c3ccccn3)c(C(F)(F)F)cc2F)c(-c2ccccc2)n1 [Example 124, N-(6-(2-amino-2-oxoethyl)-2-phenylpyridin-3-yl)-2-fluoro-5-(pyridin-2-yl)-4-(trifluoromethyl)benzamide] | 8.06 |
| NC(=O)Cc1ncc(NC(=O)c2cc(-c3ncccn3)c(C(F)(F)F)cc2F)c(-c2ccccc2)n1 [Example 125, N-(2-(2-amino-2-oxoethyl)-4-phenylpyrimidin-5-yl)-2-fluoro-5-(pyrimidin-2-yl)-4-(trifluoromethyl)benzamide] | 7.85 |
| NC(=O)Cc1ncc(NC(=O)c2cc(-c3cc[nH]n3)c(C(F)(F)F)cc2F)c(-c2ccccc2)n1 [Example 126, N-(2-(2-amino-2-oxoethyl)-4-phenylpyrimidin-5-yl)-2-fluoro-5-(1H-pyrazol-3-yl)-4-(trifluoromethyl)benzamide] | 7.77 |
| NC(=O)Cc1cc(-c2ccccc2)c(NC(=O)c2cc(-c3ccccn3)c(C(F)(F)F)cc2F)cn1 [Example 127, N-(6-(2-amino-2-oxoethyl)-4-phenylpyridin-3-yl)-2-fluoro-5-(pyridin-2-yl)-4-(trifluoromethyl)benzamide] | 8.22 |
